Each structure is given as a SMILES string. Several values for one entry are separate records, joined by “and”; a condition that tells them apart may be missing. Equal values may be shown once.

Common to all, as to format: cell-based
Assay [1] concerns hNCI-H716. Description: hNCI-H716 GLP-1 secretion. Conditions: GLP-1 secretion; for activation at 2 µM / activation at 20 µM / Primary SP hNCI (% Stim.): single point; for activation at 2 µM / activation at 20 µM: read-out: Primary SP hNCI (% Stim.); for EC50: concentration response curve, read-out: Primary CRC (EC50, μM) hNCI. The source says:
Selected compounds of this invention were screened for K-Ras Wnt synthetic lethal, anti-angiogenic activity, Wnt pathway modulatory activity, insulin and GLP-1 secretion modulatory activity, GPR119 receptor agonist activity, mGlu2R antagonist activity, CGRP receptor antagonist activity, Apelin receptor agonist activity and hexokinase 2 inhibitory activity using the PD^2 and TD^2 Screening Panel (Eli Lilly & Company). See Lee, et al. (2011) J. Biomol. Screen. 16:588-602.
(§1) In light of the above results, additional compounds (Table 7) were prepared and phenotypic assays were carried out using hNCI-H716 and mSTC-1 cell lines to monitor GLP-1 secretion (single point (SP) and concentration response curves (CRC)) (Table 8), as well as a secondary assay with pituitary cells (Table 9).

For assay [2], the system named is mSTC-1. The assay is described as follows: mSTC-1 GLP-1 secretion. Conditions: for activation at 2 µM / activation at 20 µM: single point, read-out: Primary SP mSTC (% Stim.); for EC50: concentration response curve, read-out: Primary CRC (EC50, μM) mSTC. The method, then: as §1
The test system of assay [3] is mSTC-1. Description: mSTC LDH secretion. The settings on record: read-out: Primary CRC (EC50, μM) mSTC LDH. The procedure: as §1
Assay [4] deals with hNCI-H716. The assay is described as follows: hNCI basal LDH secretion. The settings on record: read-out: Primary CRC (EC50, μM) hNCI Basal. The method, then: as §1

On to `Cc1ccc(C2CC(C)(C)c3c2[nH]c2ccc(C)cc32)cc1` (centres unmarked) [Compound 19d], for which the activation at 2 µM in the assay with hNCI-H716 [1] (2 μM) was 0%; in the assay on mSTC-1 [2], 10.3%. The figures for the activation at 20 µM in the assay on hNCI-H716 [1] (20 μM) and in the assay on mSTC-1 [2] were 0% and 53.6%, respectively.

Take `CC1=C(C)CC2(CCCCC2)c2c(n(C)c3ccccc23)C1` [Compound 11l]: the activation at 2 µM in the assay with hNCI-H716 [1] (2 μM) is -2%. Moreover, in the assay on hNCI-H716 [1] (20 μM), the activation at 20 µM was -3.3%.

As to `Cn1c2c(c3ccccc31)C1(CCCC1)[C@@H]1C=C[C@H]2C1` [Compound 11i], in the assay with hNCI-H716 [1] (2 μM), the activation at 2 µM was 0%. The activation at 20 µM in the assay with hNCI-H716 [1] (20 μM) is -6%.

`Cn1c2c(c3ccccc31)[C@@H](c1cccs1)[C@@H]1C=C[C@H]2C1` [Compound 11e]: the activation at 2 µM with hNCI-H716 [1] (2 μM) is -0.5%. In the assay on hNCI-H716 [1] (20 μM), the activation at 20 µM is -2.4%.

Consider `Cn1c2c(c3ccccc31)C1(CCCCC1)[C@@H]1C=C[C@H]2CC1` [Compound 11k], for which the activation at 2 µM in the assay with hNCI-H716 [1] (2 μM) is 3.1%. For the same compound, the activation at 20 µM in the assay on hNCI-H716 [1] (20 μM) was -1.9%.

By EC50 is commonly meant the concentration needed to bring the measured effect to its halfway point. In the case of `CC(=O)Oc1ccc(C2CC3(CCCCC3)c3c2[nH]c2ccccc32)cc1` (centres unmarked) [Compound 19i], the activation at 2 µM with hNCI-H716 [1] (2 μM) was 0%; in the assay with mSTC-1 [2], 13.5%. For the same compound, the activation at 20 µM in the assay on hNCI-H716 [1] (20 μM) stood at 23.4%; in the assay with mSTC-1 [2] it was 104%. Moreover, the half-maximal effective concentration (EC50) with hNCI-H716 [1] and in the assay on mSTC-1 [2] was > 40 µM throughout.

As to `Cn1c2c(c3ccccc31)C(C)(C)[C@@H]1C=C[C@H]2C1` [Compound 11g], in the assay on hNCI-H716 [1] (2 μM), the activation at 2 µM is -0.8%. Besides, the activation at 20 µM in the assay with hNCI-H716 [1] (20 μM) was -2.7%.

`C[C@]12c3ccccc3N[C@H]1C1CCC2C1=O` (some centres unmarked) [Compound 22]: the figures for the activation at 2 µM in the assay with hNCI-H716 [1] (2 μM) and in the assay with mSTC-1 [2] were -1.5% and -1.8%, respectively. For the same compound, the activation at 20 µM with hNCI-H716 [1] (20 μM) is -1.3%; with mSTC-1 [2], 7.4%.

Take `CC1(C)C(=O)C[C@@]2(C)c3ccccc3N(Cc3ccccc3)[C@@]12C` [Compound 30]: the activation at 2 µM in the assay on hNCI-H716 [1] (2 μM) was determined as 3.1%; in the assay with mSTC-1 [2], 49.9%. In addition, the activation at 20 µM in the assay with hNCI-H716 [1] (20 μM) is -0.2%; with mSTC-1 [2], 49.9%. In addition, the concentration giving a half-maximal response (EC50) was > 40 µM with hNCI-H716 [1]; 0.85 µM and 0.51 µM with mSTC-1 [2]; > 40 µM in the assay with mSTC-1 [3]; > 40 µM in the assay on hNCI-H716 [4].

For `Cn1c2c(c3ccccc31)C1(CCC1)[C@@H]1C=C[C@H]2C1` [Compound 11h], the activation at 2 µM in the assay on hNCI-H716 [1] (2 μM) is -2.2%. Further, the activation at 20 µM with hNCI-H716 [1] (20 μM) is -3.3%.

For `COC(=O)c1ccc2[nH]c3c(c2c1)C(C)(C)C1C=CC3C1` (centres unmarked) [Compound 11r], the figures for the “Primary SP hNCI (% Stim.)” value with hNCI-H716 [1] (2 μM) and in the assay on hNCI-H716 [1] (20 μM) were −1.1% and 13.4%, respectively.

For `COC(=O)[C@@H]1CC[C@H](O)[C@@]2(C)c3ccccc3N(C)[C@@H]12` [Compound 26], the results for the activation at 2 µM in the assay with hNCI-H716 [1] (2 μM) and in the assay with mSTC-1 [2] were 1.4% and -2.4%, respectively. In addition, the activation at 20 µM is -1.3% with hNCI-H716 [1] (20 μM) and -3.1% in the assay with mSTC-1 [2].

`CC1C=CC(C)C(c2ccccc2)c2c1n(C)c1ccccc21` (centres unmarked) [Compound 11n]: the activation at 2 µM in the assay on hNCI-H716 [1] (2 μM) is 10.3%. Also, the activation at 20 µM with hNCI-H716 [1] (20 μM) is -3.5%.

As to `Cc1ccc(C2CC3(CCCCC3)c3c2[nH]c2ccc(C)cc32)cc1` (centres unmarked) [Compound 19g], the activation at 2 µM with hNCI-H716 [1] (2 μM) is 0%; in the assay with mSTC-1 [2] it was 34.9%. Also, the activation at 20 µM in the assay on hNCI-H716 [1] (20 μM) is 0%; in the assay with mSTC-1 [2], 124%.

`CC[C@@H]1c2c(n(C)c3ccccc23)[C@H]2C=C[C@@H]1C2` [Compound 11f]: the activation at 2 µM in the assay with hNCI-H716 [1] (2 μM) was -1.1%. For the same compound, the activation at 20 µM in the assay with hNCI-H716 [1] (20 μM) was -2.4%.

Consider `O=C1C2CCC1[C@@]1(CCO)c3ccccc3N[C@@H]21` (some centres unmarked) [Compound 21], for which the activation at 2 µM was 4.3% in the assay on hNCI-H716 [1] (2 μM) and -1% with mSTC-1 [2]. Also, the results for the activation at 20 µM with hNCI-H716 [1] (20 μM) and in the assay on mSTC-1 [2] were 3.4% and -2.4%, respectively.

In the case of `Cc1ccc(C2CC(C)(C)c3c2[nH]c2ccccc32)cc1` (centres unmarked) [Compound 19h], the activation at 2 µM in the assay with hNCI-H716 [1] (2 μM) was 0%; in the assay with mSTC-1 [2], 93.2%. The activation at 20 µM is 0% in the assay with hNCI-H716 [1] (20 μM) and 107% in the assay with mSTC-1 [2].

In the case of `Cn1c2c(c3ccccc31)C1(CCCCC1)[C@@H]1C=C[C@H]2C1` [Compound 11j], the activation at 2 µM with hNCI-H716 [1] (2 μM) is -0.3%. For the same compound, in the assay with hNCI-H716 [1] (20 μM), the activation at 20 µM was -3.3%.

As to `CC1=CCc2c(c3ccccc3n2C)C(c2ccccc2)C1` (centres unmarked) [Compound 11m], in the assay on hNCI-H716 [1] (2 μM), the activation at 2 µM was -2.2%. Moreover, the activation at 20 µM in the assay on hNCI-H716 [1] (20 μM) is -1%.

On to `Cn1c2c(c3ccccc31)[C@@H](c1ccc(C(F)(F)F)cc1)[C@@H]1C=C[C@H]2C1` (racemic) [Compound 11c], for which the “Primary SP hNCI (% Stim.)” value is listed as 1% in the assay on hNCI-H716 [1] (2 μM) and 0.7% in the assay with hNCI-H716 [1] (20 μM).

The record behind these values is US9598365B2, “Method for synthesizing cycloalkanyl[b]indoles, cycloalkanyl[b]benzofurans, cycloalkanyl[b]benzothiophenes, compounds and methods of use” (Trustees of Dartmouth College, priority 2012, dated 2017).
